We go through one compound from US20250041262A1, “COMPOSITIONS FOR THE TREATMENT OF FGFR3-RELATED COGNITIVE DEFICITS WITH A CATECHIN” (INSTITUT NATIONAL DE LA SANTÉ ET DE LA RECHERCHE MÉDICALE, priority 2021, published 2025).

The subject of assay [1] is Fgfr3^N534K/+ mice (hypochondroplasia mouse model). Briefly: Morris water maze (MWM), spatial memory, HCH mouse model. Type of assay: in vivo. The note with it: bottle treatment 3 mg/L, 4 weeks; adult mice. How it is done:
The Morris water maze (MWM) is a test of spatial learning for mice that relies on distal cues to navigate from a start location to locate a submerged escape platform. Spatial learning is assessed across repeated trials during 8 days and reference memory is determined by location of the platform area. To confirm the direct implication of brain FGFR3 in cognitive disorders observed in Fgfr3^N534K/+ mice, we decided to treat mice with (−)-epicatechin bottle treatment. The animals were treated with bottle (−)-epicatechin (3 mg/L) during 4 weeks before behavioural tests.

Assay [2] has the same test system. Briefly: Bar beam, locomotion and fine coordination, HCH mouse model. It counts as in vivo. The settings on record: bottle treatment 3 mg/L, 4 weeks; adult mice. An excerpt:
The bar beam is a test to measure fine motor coordination and balance in mice by assessing if the mice stay upright and walk across an elevated narrow beam to a safe platform. This test takes place over 2 consecutive days and we measured the time it takes for the mouse to traverse the beam and the maximum distance done To confirm the direct implication of brain FGFR3 in cognitive disorders observed in Fgfr3^N534K/+ mice, we decided to treat mice with (−)-epicatechin bottle treatment. The animals were treated with bottle (−)-epicatechin (3 mg/L) during 4 weeks before behavioural tests.

Assay [3] deals with Fgfr3^Y367C/+ mouse model. The settings on record: cited from earlier work.
The test system of assay [4] is Fgfr3^N534K/+ mice (hypochondroplasia mouse model). Briefly: Contextual fear conditioning (CFC), associative memory, HCH mouse model. It counts as in vivo. The note with it: bottle treatment 3 mg/L, 4 weeks; adult mice. An excerpt: We performed on 4-month-old male mice a test related to the hippocampus associative memory (one-trial contextual fear conditioning, CFC). This test allows us to understand the ability of mice to remember an event associated with memory integration. During this behavorial test, we assess the freezing time of the mice, the mutant mice baseline was similar to control littermates during the training phase (p=0,2303). […] To confirm the direct implication of brain FGFR3 in cognitive disorders observed in Fgfr3^N534K/+ mice, we decided to treat mice with (−)-epicatechin bottle treatment. The animals were treated with bottle (−)-epicatechin (3 mg/L) during 4 weeks before behavioural tests.

For assay [5] the test system is unchanged. Briefly: Forced swim test (FST), HCH mouse model. It counts as in vivo. The settings on record: adult mice. The protocol:
(§1) 4 months old Fgfr3^N534K/+ mice and Fgfr3^A385E/+ mice received daily subcutaneous administration of (−)-epicatechin (0.15 mg/kg) or vehicle (HcL 3.5 mM, DMSO 2%) for at least seven days. For habituation and testing NOR and NOL, injection was performed 1 hour before testing phase. Timing of injection for the different tests: NOL at 7 days, NOR at 14 days, TST: at 22 days and FST at 24 days. This test is based on a similar observation than the TST. Each mouse is placed in a cylinder (height: 25 cm and diameter: 10 cm) filled with water (23-25° C.). Mice were tested for 5 min, and the time spent immobile (behavioral despair) was quantified. To confirm the direct implication of brain FGFR3 in cognitive disorders observed in Fgfr3^N534K/+ mice, we decided to treat mice with (−)-epicatechin bottle treatment. The animals were treated with bottle (−)-epicatechin (3 mg/L) during 4 weeks before behavioural tests.

Assay [6] concerns the target FGFR3 (Homo sapiens, UniProt P22607). The settings on record: reason for selection; no test described; cited from earlier work.
Assay [7] has as its system Fgfr3^N534K/+ mice (hypochondroplasia mouse model). The experiment in a line: Novel object recognition (NOR), episodic memory, HCH mouse model. It counts as in vivo. How it is done:
(§2) 4 months old Fgfr3^N534K/+ mice and Fgfr3^A385E/+ mice received daily subcutaneous administration of (−)-epicatechin (0.15 mg/kg) or vehicle (HcL 3.5 mM, DMSO 2%) for at least seven days. For habituation and testing NOR and NOL, injection was performed 1 hour before testing phase. Timing of injection for the different tests: NOL at 7 days, NOR at 14 days, TST: at 22 days and FST at 24 days.
(§3) We used a modified version of the NOR task as described in Glatigny et al., 2019. Mice were transported a short distance from the holding mouse facility to the testing room in their home cages and left undisturbed for at least one hour before the beginning of the test. The testing room was lit with two 60-W light bulbs and behavior sessions were recorded with a camera above the testing arena (grey plastic box (60×40×32 cm)). […] The objects elicited equal levels of exploration as determined in pilot experiments and training phase. […]
(§4) The following behaviors were considered as exploration of the objects: sniffing, licking, or touching the object with the nose or with the front legs or directing the nose to the object at a distance≤1 cm. Investigation was not scored if the mouse was on top of the object or completely immobile. The discrimination index was calculated as (time spent exploring the new object-time spent exploring the familiar object)/(total time spent exploring both objects). […]

Assay [8] relates to Fgfr3^A385E/+ mice (CAN mouse model). The experiment in a line: Forced swim test (FST), CAN mouse model. The settings on record: subcutaneous injections for 7 days at least; 4-month-old mice. It counts as in vivo. How it is done:
as §1, with “quantified.” for “quantified. To confirm the direct implication of brain FGFR3 in cognitive disorders observed in Fgfr3^N534K/+ mice, we decided to treat mice with (−)-epicatechin bottle treatment. The animals were treated with bottle (−)-epicatechin (3 mg/L) during 4 weeks before behavioural tests.”

Assay [9] has as its system Fgfr3^N534K/+ mice (hypochondroplasia mouse model). Briefly: Novel object location (NOL), spatial memory, HCH mouse model. Type of assay: in vivo. How it is done:
4 months old Fgfr3^N534K/+ mice and Fgfr3^A385E/+ mice received daily subcutaneous administration of (−)-epicatechin (0.15 mg/kg) or vehicle (HcL 3.5 mM, DMSO 2%) for at least seven days. For habituation and testing NOR and NOL, injection was performed 1 hour before testing phase. Timing of injection for the different tests: NOL at 7 days, NOR at 14 days, TST: at 22 days and FST at 24 days. For the novel object location task, all procedures were identical to the novel object recognition task except that during the testing phase, rather than presenting a novel object, mice encountered both familiar objects, with one object located in a different place in the arena. The time and frequency of exploration of the novel/relocated object is measured as an index of memory. Behavior was scored on videos by two observers blind to treatment and the total exploration time of the objects was quantified in the testing phases. To confirm the direct implication of brain FGFR3 in cognitive disorders observed in Fgfr3^N534K/+ mice, we decided to treat mice with (−)-epicatechin bottle treatment. The animals were treated with bottle (−)-epicatechin (3 mg/L) during 4 weeks before behavioural tests.

Assay [10] has the same test system. Briefly: Tail suspension test (TST), HCH mouse model. It counts as in vivo. The settings on record: bottle treatment 3 mg/L, 4 weeks; adult mice. How it is done:
This test is based on the observation that rodents, after initial escape-oriented movements, develop an immobile posture when placed in an inescapable stressful situation. Each mouse is hung in an uncontrollable fashion by their tail at above 25 cm from the floor. Mice were tested for 5 min, and the time spent immobile was quantified. To confirm the direct implication of brain FGFR3 in cognitive disorders observed in Fgfr3^N534K/+ mice, we decided to treat mice with (−)-epicatechin bottle treatment. The animals were treated with bottle (−)-epicatechin (3 mg/L) during 4 weeks before behavioural tests.

In assay [11] the test system is Fgfr3^A385E/+ mice (CAN mouse model). The experiment in a line: Novel object recognition (NOR), CAN mouse model. The note with it: subcutaneous injections for 7 days at least; 4-month-old mice. Type of assay: in vivo. How it is done: as §2, §3, §4
Setting [12] is: subcutaneous injection, in vivo and/or in vitro.
Where [13] appears, read: bottle treatment 3 mg/L, 4 weeks, adult mice.

Sequence of FGFR3 (P22607 23-806): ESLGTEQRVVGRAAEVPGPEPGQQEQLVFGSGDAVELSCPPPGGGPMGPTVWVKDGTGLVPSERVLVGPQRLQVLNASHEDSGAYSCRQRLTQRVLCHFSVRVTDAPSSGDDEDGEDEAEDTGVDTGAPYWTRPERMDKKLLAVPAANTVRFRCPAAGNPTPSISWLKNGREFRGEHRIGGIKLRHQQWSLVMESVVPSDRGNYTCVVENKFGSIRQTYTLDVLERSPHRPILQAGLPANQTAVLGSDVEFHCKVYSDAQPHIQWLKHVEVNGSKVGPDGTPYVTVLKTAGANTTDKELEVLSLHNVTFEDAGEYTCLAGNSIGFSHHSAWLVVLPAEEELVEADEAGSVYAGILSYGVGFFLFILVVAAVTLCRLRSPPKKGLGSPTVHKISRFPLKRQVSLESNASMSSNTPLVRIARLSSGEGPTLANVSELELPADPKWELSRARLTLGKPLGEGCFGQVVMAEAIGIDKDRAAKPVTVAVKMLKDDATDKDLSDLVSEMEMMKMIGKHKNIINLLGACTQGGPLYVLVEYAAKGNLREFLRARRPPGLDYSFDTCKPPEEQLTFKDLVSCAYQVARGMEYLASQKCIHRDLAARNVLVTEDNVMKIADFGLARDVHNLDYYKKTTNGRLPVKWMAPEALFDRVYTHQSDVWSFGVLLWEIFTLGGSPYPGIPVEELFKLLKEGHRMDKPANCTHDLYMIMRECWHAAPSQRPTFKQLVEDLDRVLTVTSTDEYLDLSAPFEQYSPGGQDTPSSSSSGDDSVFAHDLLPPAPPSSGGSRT

For `Oc1cc(O)c2c(c1)O[C@H](c1ccc(O)c(O)c1)[C@H](O)C2` [(−)-epicatechin, (2R,3R)-2-(3,4-dihydroxyphenyl)-3,4-dihydro-2H-chromene-3,5,7-triol], the “spatial memory deficits (Morrys Water Maze)” value in assay [1] is listed as “rescue”. Also, the “locomotion and coordination fine (Bar beam)” value in assay [2] is “rescue”. Besides, the “efficacy in skeletal anomalies” value in assay [3] (FGFR3 related Achondroplasia mouse model (Martin et al 2021)) is on record as “showed the efficacy”. Besides, in [3] (setting [12]), the “functional activation of the FGFR3 downstream signalling pathway” value was “sufficient to abolish or eliminating” and the “impairment of the ciliogenesis” value is “restore”. The “associative memory deficits (CFC)” value in assay [4] is reported as “rescue”. Besides, in assay [5] (bottle treatment 3 mg/L, 4 weeks), the “antidepressant effect (FST)” value is “rescue”. In addition, the antidepressant effect result in assay [5] (subcutaneous injection, FST and TST of FIG. 1) was “rescue”. The “binding specificity for FGFR3” value in assay [6] is “highest binding specificity”. Besides, in assay [7] (setting [13]), the “episodic memory deficits (NOR)” value is recorded as “rescue”. In addition, the “episodic memory deficits (NOR), exploration of novel object” value in [7] (daily subcutaneous 0.15 mg/kg, at least seven days, 4 months old male mice, vs control littermates p=0,8697) was “sufficient to restore”. In addition, in assay [8], the “coping strategy to an inescapable stress (FST)” value is given as “reestablished the coping strategy”. Also, the “spatial memory deficits (NOL)” value in assay [9] (setting [13]) was “rescue”. The “spatial memory deficits (NOL), exploration of relocated object” value in assay [9] (daily subcutaneous 0.15 mg/kg, at least seven days, 4 months old male mice, vs control littermates p=0,9538) is reported as “sufficient to restore”. The “antidepressant effect (TST)” value in [10] was “rescue”. The “memory deficits in the NOR paradigm” value in assay [11] is reported as “reversed the memory deficits”.
